Results as given in PubChem BioAssay AID328 (DTP/NCI, 2004).
“And” between values parts separate entries of the source, which are not always exact repeats. Equal values may be shown once. Toxic doses and inconclusive results are not listed. Rule for the calls: active = survival T/C of 150% or more; inactive = T/C below 125% in these data.

System: BDF1 mice, P388 leukemia ip, median survival T/C
Experiment: NCI In Vivo Anticancer Drug Screen. Data for tumor model P388 Leukemia (intraperitoneal) in B6D2F1 (BDF1) mice
Settings: endpoint: median survival time, higher = longer survival
Outline: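 Transplantable tumour in mice; compound vs vehicle dosing; survival scored; ratio of treated to control reported.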

[1] = dose: 50.0 mg/kg/injection, schedule: Q01DX009 (ip), vehicle: saline with Tween-80
[2] = dose: 100.0 mg/kg/injection, schedule: Q01DX009 (ip), vehicle: saline with Tween-80
[3] = dose: 200.0 mg/kg/injection, schedule: Q01DX009 (ip), vehicle: saline with Tween-80
[4] = dose: 100.0 mg/kg/injection, schedule: Q01DX001 (ip), vehicle: saline
[5] = dose: 200.0 mg/kg/injection, schedule: Q01DX001 (ip), vehicle: saline
[6] = dose: 400.0 mg/kg/injection, schedule: Q01DX001 (ip), vehicle: saline
[7] = dose: 25.0 mg/kg/injection, schedule: Q01DX009 (ip), vehicle: Klucel (hydroxypropylcellulose) (HPC)
[8] = dose: 50.0 mg/kg/injection, schedule: Q01DX009 (ip), vehicle: Klucel (hydroxypropylcellulose) (HPC)
[9] = dose: 100.0 mg/kg/injection, schedule: Q04DX003 (ip), vehicle: Klucel (hydroxypropylcellulose) (HPC)
[10] = dose: 200.0 mg/kg/injection, schedule: Q04DX003 (ip), vehicle: Klucel (hydroxypropylcellulose) (HPC)
[11] = dose: 100.0 mg/kg/injection, schedule: Q04DX003 (ip), vehicle: saline with Tween-80
[12] = dose: 200.0 mg/kg/injection, schedule: Q04DX003 (ip), vehicle: saline with Tween-80
[13] = dose: 400.0 mg/kg/injection, schedule: Q04DX003 (ip), vehicle: saline with Tween-80

Measured: T/C

Cc1nnc2sc3c(Cl)c4nn5c(C)nnc5sc4c(Cl)c3nn12
inactive: [1] 92 % of control | [2] 100 % of control

COc1cc(NC(N)=O)cc(OC)c1OC
inactive: dose: 18.75 mg/kg/injection, schedule: Q04DX003 (ip), vehicle: saline sonified 100 % of control | dose: 37.5 mg/kg/injection, schedule: Q04DX003 (ip), vehicle: saline sonified 86 % of control | dose: 75.0 mg/kg/injection, schedule: Q04DX003 (ip), vehicle: saline sonified 100 % of control

COC(=O)C1=C(C)NC2(C)SC1C(C)C2C(=O)OC (stereo not drawn)
inactive: [2] 107 % of control | [3] 98 % of control

Cc1nc(N)ncc1CCC1OCCO1
inactive: [4] 100 % of control | [5] 109 % of control | [6] 111 % of control

COc1cc(C=NC(CO)C(=O)O)ccc1O.COc1cc(C=NC(CO)C(=O)O)ccc1O.[Fe] (stereo not drawn)
inactive: dose: 100.0 mg/kg/injection, schedule: Q01DX009 (ip), vehicle: saline 100 % of control | dose: 100.0 mg/kg/injection, schedule: Q04DX003 (ip), vehicle: saline 100 % of control | dose: 200.0 mg/kg/injection, schedule: Q01DX009 (ip), vehicle: saline 100 % of control | dose: 200.0 mg/kg/injection, schedule: Q04DX003 (ip), vehicle: saline 95 % of control | dose: 400.0 mg/kg/injection, schedule: Q04DX003 (ip), vehicle: saline 95 % of control

COC1OC(n2cnc3ncn(Cc4ccccc4)c3c2=N)C2OC(C)(C)OC12 (stereo not drawn)
inactive: [4] 110 % of control | [5] 95 % of control

NC1=NC(=O)NC1(c1ccccc1)c1ccccc1
inactive: [1] 107 % of control | [2] 91 % of control | [3] 90 % of control | dose: 400.0 mg/kg/injection, schedule: Q01DX009 (ip), vehicle: saline with Tween-80 94 % of control

O=C(NCCc1ccccc1)Nc1ccccc1
inactive: dose: 75.0 mg/kg/injection, schedule: Q01DX009 (ip), vehicle: saline with Tween-80 95 % of control | dose: 150.0 mg/kg/injection, schedule: Q01DX009 (ip), vehicle: saline with Tween-80 104 % of control | dose: 300.0 mg/kg/injection, schedule: Q01DX009 (ip), vehicle: saline with Tween-80 109 % of control

CCCCCCCCCCCCCCCCOc1ccccn1
inactive: [7] 91 % of control | [8] 95 % of control | dose: 100.0 mg/kg/injection, schedule: Q01DX009 (ip), vehicle: Klucel (hydroxypropylcellulose) (HPC) 95 % of control | [9] 100 % of control | [10] 104 % of control | dose: 400.0 mg/kg/injection, schedule: Q04DX003 (ip), vehicle: Klucel (hydroxypropylcellulose) (HPC) 122 % of control

CC(C)=NNC(=O)c1ccccc1
inactive: dose: 25.0 mg/kg/injection, schedule: Q01DX009 (ip), vehicle: saline 104 % of control | dose: 25.0 mg/kg/injection, schedule: Q04DX003 (ip), vehicle: saline with Tween-80 95 % of control | dose: 50.0 mg/kg/injection, schedule: Q01DX009 (ip), vehicle: saline 109 % of control | dose: 50.0 mg/kg/injection, schedule: Q04DX003 (ip), vehicle: saline with Tween-80 95 % of control | [11] 100 % of control and 113 % of control

CCCCSc1cc(Cc2cc(C)ccc2O)c(O)c(Cc2cc(C)ccc2O)c1
inactive: dose: 50.0 mg/kg/injection, schedule: Q01DX009 (ip), vehicle: other 107 % of control | dose: 100.0 mg/kg/injection, schedule: Q01DX009 (ip), vehicle: other 107 % of control

CCCCCCCCCCCCCCCCCC[N+](C)(C)C
inactive: dose: 1.56 mg/kg/injection, schedule: Q04DX003 (ip), vehicle: saline 115 % of control | dose: 3.12 mg/kg/injection, schedule: Q04DX003 (ip), vehicle: saline 115 % of control | dose: 4.12 mg/kg/injection, schedule: Q01DX009 (ip), vehicle: saline 115 % of control | dose: 6.25 mg/kg/injection, schedule: Q01DX009 (ip), vehicle: saline 90 % of control | dose: 6.25 mg/kg/injection, schedule: Q04DX003 (ip), vehicle: saline 120 % of control | dose: 9.2 mg/kg/injection, schedule: Q04DX003 (ip), vehicle: saline 104 % of control | dose: 14.0 mg/kg/injection, schedule: Q04DX003 (ip), vehicle: saline 100 % of control | dose: 21.0 mg/kg/injection, schedule: Q04DX003 (ip), vehicle: saline 90 % of control

O=C(NCCc1c[nH]c2ccccc12)c1cccnc1
inactive: [4] 104 % of control | [5] 100 % of control | [6] 95 % of control

COc1cc2c(cc1OC)C(c1c(-c3c(Cl)cccc3Cl)noc1C)=NCC2
inactive: [1] 99 % of control | [2] 92 % of control | [3] 106 % of control

O=C(O)c1ccccc1C(=O)Nc1ccc([N+](=O)[O-])cc1Cl
inactive: dose: 50.0 mg/kg/injection, schedule: Q04DX003 (ip), vehicle: Klucel (hydroxypropylcellulose) (HPC) 100 % of control | [9] 100 % of control | [10] 95 % of control

Oc1c(I)cc(Cl)c2cccnc12
inactive: dose: 12.5 mg/kg/injection, schedule: Q01DX009 (ip), vehicle: Klucel (hydroxypropylcellulose) (HPC) 115 % of control | [7] 115 % of control | [8] 120 % of control

CS/C(N)=N\S(=O)(=O)c1ccc(NC(C)=O)cc1
inactive: [11] 95 % of control | [12] 119 % of control | [13] 100 % of control

COc1ccc(SC2=C(N(C)C(C)=O)C(=O)c3ccccc3C2=O)cc1
inactive: dose: 0.93 mg/kg/injection, schedule: Q01DX009 (ip), vehicle: Klucel (hydroxypropylcellulose) (HPC) 109 % of control | dose: 1.87 mg/kg/injection, schedule: Q01DX009 (ip), vehicle: Klucel (hydroxypropylcellulose) (HPC) 113 % of control | dose: 3.75 mg/kg/injection, schedule: Q01DX009 (ip), vehicle: Klucel (hydroxypropylcellulose) (HPC) 113 % of control | dose: 7.5 mg/kg/injection, schedule: Q01DX009 (ip), vehicle: Klucel (hydroxypropylcellulose) (HPC) 108 % of control | dose: 11.0 mg/kg/injection, schedule: Q04DX003 (ip), vehicle: Klucel (hydroxypropylcellulose) (HPC) 100 % of control | dose: 17.0 mg/kg/injection, schedule: Q04DX003 (ip), vehicle: Klucel (hydroxypropylcellulose) (HPC) 100 % of control

COC(=O)N(CCCl)N=O
inactive: dose: 2.5 mg/kg/injection, schedule: Q01DX001 (ip), vehicle: saline with Tween-80 109 % of control | dose: 5.0 mg/kg/injection, schedule: Q01DX001 (ip), vehicle: saline with Tween-80 109 % of control | dose: 10.0 mg/kg/injection, schedule: Q01DX001 (ip), vehicle: saline with Tween-80 123 % of control

Cc1ccc(C)c(C(=O)CCC(=O)O)c1
inactive: dose: 12.5 mg/kg/injection, schedule: Q01DX009 (ip), vehicle: saline with Tween-80 108 % of control | dose: 25.0 mg/kg/injection, schedule: Q01DX009 (ip), vehicle: saline with Tween-80 110 % of control | [2] 91 % of control | [3] 99 % of control | [12] 91 % of control | [13] 100 % of control

C#CCOc1ccccc(Br)c1=O
inactive: dose: 50.0 mg/kg/injection, schedule: Q04DX002 (ip), vehicle: saline with Tween-80 115 % of control | dose: 100.0 mg/kg/injection, schedule: Q04DX002 (ip), vehicle: saline with Tween-80 104 % of control | dose: 200.0 mg/kg/injection, schedule: Q04DX002 (ip), vehicle: saline with Tween-80 106 % of control
